Experimental data published in ChEMBL document CHEMBL1201862, “PubChem BioAssay data set” (2004).
The source made the active and inactive calls.

Key:
[1] = molecular target: T1, Calpain-2 catalytic subunit (Sus scrofa, UniProt P43367); assay: pig calpain II inhibitor potency, dose response, biochemical, fluorogenic peptide substrate (AID 1420); assay type: functional
T1 sequence (P43367 whole entry): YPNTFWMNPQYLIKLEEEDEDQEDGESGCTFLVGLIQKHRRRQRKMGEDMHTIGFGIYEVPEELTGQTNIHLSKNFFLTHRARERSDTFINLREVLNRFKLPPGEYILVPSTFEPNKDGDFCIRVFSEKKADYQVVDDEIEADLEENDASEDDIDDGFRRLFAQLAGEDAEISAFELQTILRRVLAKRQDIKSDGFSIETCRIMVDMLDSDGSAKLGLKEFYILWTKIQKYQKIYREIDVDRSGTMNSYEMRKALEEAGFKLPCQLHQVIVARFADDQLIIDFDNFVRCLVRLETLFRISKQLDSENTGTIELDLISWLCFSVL

Bcl-2-related protein A1 [2] = molecular target: T2, Bcl-2-related protein A1 (Mus musculus, UniProt Q07440); assay: Bfl-1 inhibitors, primary screen, biochemical, fluorescence polarization, FITC-Bid, mouse (AID 432)
T2 sequence (Q07440 whole entry): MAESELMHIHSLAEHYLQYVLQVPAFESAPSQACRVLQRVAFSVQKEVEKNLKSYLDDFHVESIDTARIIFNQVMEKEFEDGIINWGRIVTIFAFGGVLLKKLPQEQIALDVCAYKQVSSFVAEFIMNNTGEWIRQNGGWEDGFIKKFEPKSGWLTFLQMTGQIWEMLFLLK

Protein Rev = Protein Rev (Human immunodeficiency virus type 1 group M subtype B (isolate WMJ22)(HIV-1), UniProt P05866); assay: HIV-1 Rev-RRE RNA binding disruptors, dose response, biochemical, protein-RNA interaction (AID 842); set-up: species or system Human immunodeficiency virus 1
Bcl-2-related protein A1 [3] = molecular target: T2, Bcl-2-related protein A1; assay: Bfl-1 inhibitors blocking BH3 peptide binding, confirmation, biochemical, TR-FRET, mouse Bfl-1 (AID 621);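 note: TR-FRET binding of GST-Bfl-1 to FITC-labelled Bid peptide via terbium antibody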
Vero [4] = assay: cytotoxicity of synthesized analogs in Vero cells, SAR follow-up, cytotoxicity control for West Nile virus antiviral project, cell-based, set II (AID 2402); assay type: functional; settings: Chlorocebus sabaeus
Vero [5] = assay: Vero E6 cell cytotoxicity, SAR follow-up, cytotoxicity control for West Nile virus antiviral project, synthesized analogs (AID 2244); assay type: functional; settings: Chlorocebus sabaeus
Vero [6] = assay: cytotoxicity of synthesized analogs in Vero 76, SAR follow-up, cytotoxicity control for West Nile virus antiviral project, Vero 76 cells (AID 2414); assay type: functional; settings: Chlorocebus sabaeus
Vibrio harveyi [7] = assay: Quorum Sensing, LuxS, LuxPQ Measured in Microorganism System Using Plate Reader - 2035-01_Inhibitor_DoseNoFile_DryPowder_Activity. [Related pubchem assays (depositor defined):AID2106]; assay type: functional, organism-based
Vibrio harveyi [8] = assay: inhibitors of AI-2 quorum sensing in V. harveyi, dose response, LuxS, LuxPQ, dry powder, set 2 (AID 493072); assay type: functional, organism-based
[9] = molecular target: T3, Eukaryotic translation initiation factor 2-alpha kinase 3 (Homo sapiens, UniProt Q9NZJ5); assay: Counterscreen assay for PERK inhibitors: Dose response cell-based high throughput screening assay to measure inhibition of PERK at 6 hours. [Related pubchem assays: 1522, 1416 ]; assay type: functional
[10] = molecular target: T3, Eukaryotic translation initiation factor 2-alpha kinase 3; assay: Dose response cell-based high-throughput screening assay to measure PERK inhibition. [Related pubchem assays: 1416 ]; assay type: functional
Streptococcus [11] = assay: Luminescence Microorganism-Based Dose Response Follow up to Identify Compounds Cytotoxic to Streptococcus. [Related pubchem assays: 1677 (Project Summary), 1915, 1914, 1902 (Retest at Dose), 1900 (Counter Screen), 1662 (Primary HTS)]; assay type: functional, organism-based
[12] = system: Streptococcus sp. 'group A'; assay: growth inhibition of control SK(-) GAS strain, dose response, counter-screen for streptokinase expression inhibitor project, luminescence, kanamycin, BacTiterGlo, confirmation (AID 1900); assay type: functional, organism-based; settings: read-out: EC50
Streptococcus [13] = assay: Group A Streptococcus viability loss, dose response, counter-screen for streptokinase expression inhibitor project, luminescence, BacTiterGlo (AID 1915); assay type: functional, organism-based;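 note: potency for reduction of bacterial viability or growth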
Streptokinase A = molecular target: T4, Streptokinase A (Streptococcus pyogenes serotype M1, UniProt P10520); assay: S. pyogenes streptokinase expression inhibitors, potency, dose response, plasminogen activation absorbance, OD405 (AID 1914); assay type: functional, Streptococcus pyogenes M1 GAS;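 note: secreted streptokinase activity via plasminogen activation per viability signal from cell pellet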
T4 sequence (P10520 whole entry): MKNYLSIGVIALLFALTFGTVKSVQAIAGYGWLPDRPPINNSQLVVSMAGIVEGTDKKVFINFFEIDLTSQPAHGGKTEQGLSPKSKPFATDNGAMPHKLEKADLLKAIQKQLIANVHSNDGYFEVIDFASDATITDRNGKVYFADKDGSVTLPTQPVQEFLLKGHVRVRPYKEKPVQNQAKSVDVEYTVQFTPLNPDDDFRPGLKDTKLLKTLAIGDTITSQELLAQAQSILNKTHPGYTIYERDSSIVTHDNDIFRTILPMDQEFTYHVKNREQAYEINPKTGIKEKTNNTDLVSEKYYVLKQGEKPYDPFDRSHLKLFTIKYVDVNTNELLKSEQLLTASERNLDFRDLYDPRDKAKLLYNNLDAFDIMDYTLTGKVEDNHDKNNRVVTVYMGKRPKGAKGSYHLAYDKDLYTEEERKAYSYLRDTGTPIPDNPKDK

[14] = Luminescence Cell-Based Dose Response HTS to Identify Inhibitors of 5'UTR Stem-Loop Driven Prion Protein mRNA Translation in H4 Neuroglioblastoma Cells. [Related pubchem assays: 1827 (Project Summary), 1813 (Primary HTS)]; assay type: functional
[15] = inhibitors of SNCA 5'UTR-driven reporter translation, confirmation, H4 neuroglioma cells, luminescence (AID 1988); assay type: functional, cell-based
[16] = inhibitors of firefly luciferase expression or activity, dose response, H4 neuroglioma cells, luminescence (AID 1990); assay type: functional, cell-based
Chaperone protein dnaK = Chaperone protein dnaK (Escherichia coli, UniProt C3TRK2); assay: DnaK beta-domain binding affinity, SAR follow-up, orthogonal assay for DnaK modulator project, biophysical, isothermal titration calorimetry, full-length DnaK (AID 1495)
Cytochrome P450 3A4 = Cytochrome P450 3A4 (Homo sapiens, UniProt P08684); settings: Potency;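 note: confirmatory qHTS run detecting inhibitors and substrates of CYP3A4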
[17] = molecular target: Transitional endoplasmic reticulum ATPase (Homo sapiens, UniProt P55072, C522A); assay: C522A mutant p97 ATPase inhibitors, dose response, counter-screen for p97 inhibitor project, biochemical, luminescence (AID 1544)
Vero [18] = assay: cells; assay type: functional, cell-based; settings: Chlorocebus sabaeus
[19] = molecular target: Transitional endoplasmic reticulum ATPase (Homo sapiens, UniProt P55072); assay: p97 ATPase inhibitors, dose response, biochemical (AID 1534)
[20] = A cytotoxicity screen of small molecule inhibitors of the PhoP region in Salmonella typhi identified in the primary screen. [Related pubchem assays: 1850, 1864, 1985 ]; assay type: functional
Cytochrome P450 2C9 [21] = molecular target: T5, Cytochrome P450 2C9 (Homo sapiens, UniProt P11712); settings: Potency
Cytochrome P450 1A2 = molecular target: T6, Cytochrome P450 1A2 (Homo sapiens, UniProt P05177);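 note: PubChem cytochrome P450 panel assay, CYP1A2 panel member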
T6 sequence (P05177 whole entry): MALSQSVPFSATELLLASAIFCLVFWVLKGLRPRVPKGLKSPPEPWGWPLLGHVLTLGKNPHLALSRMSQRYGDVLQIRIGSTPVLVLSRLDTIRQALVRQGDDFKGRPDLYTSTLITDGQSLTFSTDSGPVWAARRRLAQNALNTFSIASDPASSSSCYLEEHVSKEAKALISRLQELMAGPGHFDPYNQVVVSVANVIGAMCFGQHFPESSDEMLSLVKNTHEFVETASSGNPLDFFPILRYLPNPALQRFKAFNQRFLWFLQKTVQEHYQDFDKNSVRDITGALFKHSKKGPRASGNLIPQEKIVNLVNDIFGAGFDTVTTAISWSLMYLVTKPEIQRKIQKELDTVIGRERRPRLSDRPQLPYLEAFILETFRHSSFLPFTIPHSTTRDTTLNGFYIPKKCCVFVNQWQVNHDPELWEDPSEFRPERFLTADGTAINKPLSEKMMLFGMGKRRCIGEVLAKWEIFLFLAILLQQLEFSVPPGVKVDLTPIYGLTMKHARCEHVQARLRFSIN

Cytochrome P450 2C19 = Cytochrome P450 2C19 (Homo sapiens, UniProt P33261); assay: Cytochrome panel assay with activity outcomes. Panel member name: p450-cyp2c19 Compounds with AC50 equal or less than 10 uM are considered active; assay type: functional; settings: read-out: AC50
Cytochrome P450 2C9 [22] = molecular target: T5, Cytochrome P450 2C9
Cytochrome P450 2D6 [23] = molecular target: T7, Cytochrome P450 2D6 (Homo sapiens, UniProt P10635); assay: qHTS Assay for Inhibitors and Substrates of Cytochrome P450 2D6. [Related pubchem assays: 410 ]; assay type: ADME; settings: read-out: Potency
Cytochrome P450 2D6 [24] = molecular target: T7, Cytochrome P450 2D6
Large T antigen = Large T antigen (Simian virus 40, UniProt P03070); assay type: functional, Betapolyomavirus macacae;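 note: Confirmatory-stage PubChem screen for compounds that inhibit SV40 T antigen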
[25] = molecular target: Photoreceptor-specific nuclear receptor (Homo sapiens, UniProt Q9Y5X4); assay type: functional;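 note: potency for compounds that break the NR2E3 corepressor complex and count as activators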
[26] = molecular target: T8, Intestinal-type alkaline phosphatase (Homo sapiens, UniProt P09923); assay: human IAP inhibitors, dose response, biochemical, luminescent, uHTS hits, set 2 (AID 488793); assay type: functional
[27] = molecular target: Intestinal-type alkaline phosphatase (Mus musculus, UniProt P24822); assay: PubChem AID 488874; assay type: functional
[28] = molecular target: T8, Intestinal-type alkaline phosphatase; assay: Dose Response confirmation of uHTS hits from a small molecule inhibitors of human intestinal alkaline phosphatase via a luminescent assay. [Related pubchem assays (depositor defined):AID2544, AID2574]; assay type: functional
[29] = molecular target: T9, Alkaline phosphatase, tissue-nonspecific isozyme (Homo sapiens, UniProt P05186); assay: TNAP enzyme activators, dose response, selectivity assay for human IAP activator project, biochemical, TNAP isozyme, human IAP uHTS hits (AID 488886); assay type: functional;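 note: potency of compounds raising TNAP activity as a selectivity check on IAP activators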
T9 sequence (P05186 whole entry): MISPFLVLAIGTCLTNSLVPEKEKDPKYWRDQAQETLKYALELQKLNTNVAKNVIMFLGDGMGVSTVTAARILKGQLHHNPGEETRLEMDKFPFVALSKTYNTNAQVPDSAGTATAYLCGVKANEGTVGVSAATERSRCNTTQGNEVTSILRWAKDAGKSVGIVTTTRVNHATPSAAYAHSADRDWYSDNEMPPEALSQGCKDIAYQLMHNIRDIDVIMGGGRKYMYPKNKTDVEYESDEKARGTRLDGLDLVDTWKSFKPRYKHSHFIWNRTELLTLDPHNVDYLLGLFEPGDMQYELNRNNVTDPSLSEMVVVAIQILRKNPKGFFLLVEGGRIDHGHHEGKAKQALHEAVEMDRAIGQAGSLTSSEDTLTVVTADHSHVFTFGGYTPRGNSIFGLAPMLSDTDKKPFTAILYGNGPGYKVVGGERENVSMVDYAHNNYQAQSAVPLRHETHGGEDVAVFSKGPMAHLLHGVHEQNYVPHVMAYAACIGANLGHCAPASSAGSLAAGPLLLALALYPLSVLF

[30] = molecular target: Peroxisome proliferator-activated receptor gamma/Nuclear receptor corepressor 2 (Homo sapiens, UniProt P37231+Q9Y618); assay type: functional

T8 sequence (P09923 whole entry): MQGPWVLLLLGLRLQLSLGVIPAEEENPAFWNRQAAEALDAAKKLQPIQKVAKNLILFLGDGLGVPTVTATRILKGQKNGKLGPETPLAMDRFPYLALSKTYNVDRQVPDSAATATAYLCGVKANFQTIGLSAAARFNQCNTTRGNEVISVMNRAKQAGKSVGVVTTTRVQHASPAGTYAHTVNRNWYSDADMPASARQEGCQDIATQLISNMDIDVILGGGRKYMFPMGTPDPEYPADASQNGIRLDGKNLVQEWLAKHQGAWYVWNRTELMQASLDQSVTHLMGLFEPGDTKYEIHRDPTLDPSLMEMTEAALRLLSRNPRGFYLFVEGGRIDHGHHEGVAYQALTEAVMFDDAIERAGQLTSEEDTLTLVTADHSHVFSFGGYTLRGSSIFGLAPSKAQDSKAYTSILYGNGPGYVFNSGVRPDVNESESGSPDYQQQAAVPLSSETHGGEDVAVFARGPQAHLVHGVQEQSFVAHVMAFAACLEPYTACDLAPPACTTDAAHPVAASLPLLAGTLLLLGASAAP
T5 sequence (P11712 whole entry): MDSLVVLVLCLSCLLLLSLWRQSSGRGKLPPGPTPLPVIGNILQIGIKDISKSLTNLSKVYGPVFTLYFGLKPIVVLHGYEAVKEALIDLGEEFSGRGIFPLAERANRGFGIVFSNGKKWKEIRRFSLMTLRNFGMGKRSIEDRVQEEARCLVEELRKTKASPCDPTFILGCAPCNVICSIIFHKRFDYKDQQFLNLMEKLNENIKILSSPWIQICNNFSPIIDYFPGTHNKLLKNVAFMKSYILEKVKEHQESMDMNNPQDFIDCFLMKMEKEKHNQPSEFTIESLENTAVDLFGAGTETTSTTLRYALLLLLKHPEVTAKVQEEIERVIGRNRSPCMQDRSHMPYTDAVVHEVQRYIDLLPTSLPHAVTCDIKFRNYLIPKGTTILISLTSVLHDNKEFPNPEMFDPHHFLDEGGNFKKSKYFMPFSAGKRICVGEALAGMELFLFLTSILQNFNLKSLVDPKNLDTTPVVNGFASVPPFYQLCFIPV
T7 sequence (P10635 whole entry): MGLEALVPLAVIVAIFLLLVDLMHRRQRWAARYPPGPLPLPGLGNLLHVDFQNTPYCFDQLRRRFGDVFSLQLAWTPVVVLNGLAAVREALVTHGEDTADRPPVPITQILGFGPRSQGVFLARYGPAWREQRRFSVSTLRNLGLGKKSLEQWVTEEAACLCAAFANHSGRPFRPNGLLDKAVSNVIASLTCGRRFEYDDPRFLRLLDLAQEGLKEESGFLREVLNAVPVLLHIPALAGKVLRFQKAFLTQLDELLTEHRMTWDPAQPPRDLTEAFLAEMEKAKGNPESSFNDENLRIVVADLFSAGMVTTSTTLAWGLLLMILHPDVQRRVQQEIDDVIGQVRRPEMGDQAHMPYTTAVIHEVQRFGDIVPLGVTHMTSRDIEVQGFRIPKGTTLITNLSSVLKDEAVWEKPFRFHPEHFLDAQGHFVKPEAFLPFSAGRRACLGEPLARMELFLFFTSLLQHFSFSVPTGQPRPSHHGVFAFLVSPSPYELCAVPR
T3 sequence (Q9NZJ5 whole entry): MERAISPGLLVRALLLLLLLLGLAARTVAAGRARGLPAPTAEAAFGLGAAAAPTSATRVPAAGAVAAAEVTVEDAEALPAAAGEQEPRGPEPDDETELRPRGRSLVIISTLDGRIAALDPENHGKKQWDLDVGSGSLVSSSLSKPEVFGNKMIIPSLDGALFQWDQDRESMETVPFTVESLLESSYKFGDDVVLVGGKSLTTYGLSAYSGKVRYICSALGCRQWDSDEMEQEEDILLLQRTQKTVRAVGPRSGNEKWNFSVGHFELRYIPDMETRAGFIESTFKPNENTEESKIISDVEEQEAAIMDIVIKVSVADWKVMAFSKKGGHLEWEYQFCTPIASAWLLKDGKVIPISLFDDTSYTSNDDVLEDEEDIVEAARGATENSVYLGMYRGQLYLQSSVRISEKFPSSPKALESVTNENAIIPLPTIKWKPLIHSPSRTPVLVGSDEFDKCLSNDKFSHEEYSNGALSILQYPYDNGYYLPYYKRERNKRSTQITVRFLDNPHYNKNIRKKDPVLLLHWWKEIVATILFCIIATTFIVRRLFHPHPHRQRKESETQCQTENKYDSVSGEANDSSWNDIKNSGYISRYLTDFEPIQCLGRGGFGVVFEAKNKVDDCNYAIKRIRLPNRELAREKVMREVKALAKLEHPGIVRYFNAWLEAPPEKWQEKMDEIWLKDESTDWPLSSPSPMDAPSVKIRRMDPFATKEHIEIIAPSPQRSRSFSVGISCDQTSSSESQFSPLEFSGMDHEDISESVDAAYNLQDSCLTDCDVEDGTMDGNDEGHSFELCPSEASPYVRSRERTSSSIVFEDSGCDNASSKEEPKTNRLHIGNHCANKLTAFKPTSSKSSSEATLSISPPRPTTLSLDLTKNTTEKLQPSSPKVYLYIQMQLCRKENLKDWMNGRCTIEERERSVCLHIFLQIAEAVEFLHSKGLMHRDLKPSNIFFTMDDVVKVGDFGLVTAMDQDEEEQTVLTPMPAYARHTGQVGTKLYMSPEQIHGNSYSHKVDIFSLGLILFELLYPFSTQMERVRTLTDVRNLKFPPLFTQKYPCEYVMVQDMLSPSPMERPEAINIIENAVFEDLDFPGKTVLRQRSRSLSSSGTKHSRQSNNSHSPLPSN
Cytochrome P450 2C19, sequence (P33261 whole entry): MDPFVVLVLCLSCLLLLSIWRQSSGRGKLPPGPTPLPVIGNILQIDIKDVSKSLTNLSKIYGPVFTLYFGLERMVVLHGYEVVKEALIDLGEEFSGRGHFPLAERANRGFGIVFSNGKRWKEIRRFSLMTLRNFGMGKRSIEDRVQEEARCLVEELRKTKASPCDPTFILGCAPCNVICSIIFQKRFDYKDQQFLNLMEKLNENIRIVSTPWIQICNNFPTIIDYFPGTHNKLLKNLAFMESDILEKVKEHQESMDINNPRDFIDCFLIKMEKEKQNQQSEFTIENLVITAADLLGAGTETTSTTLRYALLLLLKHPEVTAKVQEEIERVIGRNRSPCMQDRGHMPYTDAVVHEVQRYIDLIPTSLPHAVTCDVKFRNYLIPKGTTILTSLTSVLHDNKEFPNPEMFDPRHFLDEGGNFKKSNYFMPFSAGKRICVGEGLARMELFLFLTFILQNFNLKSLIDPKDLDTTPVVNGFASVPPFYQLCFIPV
Photoreceptor-specific nuclear receptor, sequence (Q9Y5X4 whole entry): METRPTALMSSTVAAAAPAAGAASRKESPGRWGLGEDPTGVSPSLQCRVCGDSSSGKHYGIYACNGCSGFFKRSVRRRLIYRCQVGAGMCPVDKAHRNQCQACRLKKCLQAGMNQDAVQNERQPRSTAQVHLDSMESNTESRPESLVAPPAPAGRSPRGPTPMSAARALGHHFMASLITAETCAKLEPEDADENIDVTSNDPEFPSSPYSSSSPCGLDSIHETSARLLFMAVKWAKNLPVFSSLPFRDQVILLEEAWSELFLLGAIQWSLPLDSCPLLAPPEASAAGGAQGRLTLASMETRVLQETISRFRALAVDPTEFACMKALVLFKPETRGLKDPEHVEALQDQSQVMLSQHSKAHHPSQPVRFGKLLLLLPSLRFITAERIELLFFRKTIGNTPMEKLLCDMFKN
Protein Rev, sequence (P05866 whole entry): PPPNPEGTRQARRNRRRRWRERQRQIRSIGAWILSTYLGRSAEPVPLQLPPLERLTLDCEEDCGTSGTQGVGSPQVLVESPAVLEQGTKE
Transitional endoplasmic reticulum ATPase (Homo sapiens, UniProt P55072), sequence (P55072 whole entry): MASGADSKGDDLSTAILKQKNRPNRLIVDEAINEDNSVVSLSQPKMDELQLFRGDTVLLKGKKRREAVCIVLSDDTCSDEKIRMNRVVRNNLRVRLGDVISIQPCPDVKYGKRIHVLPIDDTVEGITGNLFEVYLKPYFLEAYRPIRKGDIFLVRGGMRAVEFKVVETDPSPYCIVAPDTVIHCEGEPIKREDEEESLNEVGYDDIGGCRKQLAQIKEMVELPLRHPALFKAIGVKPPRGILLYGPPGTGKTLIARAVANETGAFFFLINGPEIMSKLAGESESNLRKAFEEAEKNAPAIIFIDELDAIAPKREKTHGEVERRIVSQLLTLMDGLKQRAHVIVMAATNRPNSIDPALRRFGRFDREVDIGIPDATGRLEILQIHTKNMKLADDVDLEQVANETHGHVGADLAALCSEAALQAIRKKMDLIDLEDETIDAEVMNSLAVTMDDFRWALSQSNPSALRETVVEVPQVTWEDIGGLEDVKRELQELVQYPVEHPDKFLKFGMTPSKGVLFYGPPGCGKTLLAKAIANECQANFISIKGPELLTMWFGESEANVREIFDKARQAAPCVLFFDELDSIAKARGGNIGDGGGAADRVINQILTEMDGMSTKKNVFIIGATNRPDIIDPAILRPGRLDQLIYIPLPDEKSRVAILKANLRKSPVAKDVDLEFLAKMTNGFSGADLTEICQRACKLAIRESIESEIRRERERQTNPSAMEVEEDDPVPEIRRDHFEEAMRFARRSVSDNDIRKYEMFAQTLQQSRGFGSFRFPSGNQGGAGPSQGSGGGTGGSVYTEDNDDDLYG
Intestinal-type alkaline phosphatase (Mus musculus, UniProt P24822), sequence (P24822 whole entry): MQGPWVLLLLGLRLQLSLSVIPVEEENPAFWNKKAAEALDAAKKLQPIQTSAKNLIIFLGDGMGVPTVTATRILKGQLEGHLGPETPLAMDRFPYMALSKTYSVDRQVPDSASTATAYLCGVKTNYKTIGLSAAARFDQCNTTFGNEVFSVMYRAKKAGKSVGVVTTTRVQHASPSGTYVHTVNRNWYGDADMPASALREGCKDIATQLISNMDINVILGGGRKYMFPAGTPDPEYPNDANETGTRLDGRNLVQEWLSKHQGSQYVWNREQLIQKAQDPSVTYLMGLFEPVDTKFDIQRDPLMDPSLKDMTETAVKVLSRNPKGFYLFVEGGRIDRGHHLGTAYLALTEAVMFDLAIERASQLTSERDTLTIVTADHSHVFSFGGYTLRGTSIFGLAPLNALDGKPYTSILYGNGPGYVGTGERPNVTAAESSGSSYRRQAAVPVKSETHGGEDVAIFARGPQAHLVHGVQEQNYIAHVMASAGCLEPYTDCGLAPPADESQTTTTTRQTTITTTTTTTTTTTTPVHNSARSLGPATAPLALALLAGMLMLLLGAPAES

SMILES: COc1cccc(OC)c1-c1nn2c(-c3cc(-c4ccccc4)n[nH]3)nnc2s1
- IC50 [1]: > 50 µM (not active)
- IC50 (Bcl-2-related protein A1 [2]): 14.1 µM (active)
- IC50 (Protein Rev): > 79.4 µM (not active)
- IC50 (Bcl-2-related protein A1 [3]): > 100 µM (not active)

SMILES: O=c1c2cc(Br)ccc2nc2n1CC/C2=C/c1ccccc1
- CC50 (Vero [4]): 33.3 µM (active)
- CC50 (Vero [5]): > 40 µM (active)
- CC50 (Vero [6]): > 66.6 µM (active)

SMILES: Cc1cccc(NS(=O)(=O)c2ccc(Oc3ccccc3)cc2)n1
- AC50 (Vibrio harveyi [7]): 2.4 µM (active)
- AC50 (Vibrio harveyi [8]): 4.9 µM (active)
- AC50 (Vibrio harveyi [8]; Vibrio harveyi): 5.99 µM (active)

SMILES: COc1ccc(/C=C/C(=O)N[C@@H](C)C(=O)O)cc1
- EC50 [9]: > 55.7 µM (not active)
- EC50 [10]: > 55.7 µM (not active)

SMILES: Cc1cccc(C)c1Oc1nc(-c2ccccc2)ncc1S(=O)(=O)c1ccccc1
- EC50 (Streptococcus [11]): > 500 µM (not active)
- EC50 [12]: 44.1 µM (active)
- EC50 (Streptococcus [13]): > 150 µM (not active)
- EC50 (Streptokinase A): 3.99 µM (active)
- EC50 [14]: 29.8 µM (active)
- EC50 [15]: 16.9 µM (active)
- EC50 [16]: 13.2 µM (active)

SMILES: Nc1ccc2c(ccn2C(=O)c2cccs2)c1
- Kd (Chaperone protein dnaK): 3.4 µM (active)

SMILES: COCCN(CCOC)c1nc(C)nc2c1nc(-c1ccccc1)n2CCN(C)C
- AC50 (Cytochrome P450 3A4): 15.8 µM (inconclusive)

SMILES: [O-][n+]1onc2c1CCc1[nH]c(-c3ccccc3)nc1-2
- IC50 [17]: > 50 µM (not active)
- IC50 (Vero [18]): 14 µM (active)
- IC50 [19]: > 50 µM (not active)
- EC50 [20]: > 50 µM (active)

SMILES: O=C(CCNNC(=O)c1ccncc1)NCc1ccccc1 [NIALAMIDE]
- AC50 (Cytochrome P450 2C9 [21]): 25.1 µM (inconclusive)
- AC50 (Cytochrome P450 1A2): 12.6 µM (inconclusive)
- AC50 (Cytochrome P450 2C19): 10 µM (inconclusive)
- AC50 (Cytochrome P450 2C9 [22]): 10 µM (inconclusive)
- AC50 (Cytochrome P450 2D6 [23]): 25.1 µM (inconclusive)
- AC50 (Cytochrome P450 2D6 [24]): 7.94 µM (inconclusive)

SMILES: O=c1c2cc(O)c(O)cc2oc2cc(O)c(C3OC(CO)C(O)C(O)C3O)c(O)c12 (stereo not drawn)
- IC50 (Large T antigen): 8.63 µM (active)
- IC50 [25]: > 39.8 µM (not active)
- IC50 [26]: 262 nM (active)
- IC50 [27]: 14 µM (active)
- IC50 [28]: 1.19 µM (active)
- EC50 [29]: > 100 µM (inactive)
- IC50 [30]: > 39.8 µM (not active)
